Experimental data from US20210196654A1, “METHOD OF TREATING CONDITIONS” (Clexio Biosciences Ltd., priority 2019, published 2021).
Like-named read-outs stand apart in the source and are kept apart here.

Columns and labels:
[1] = test system: animal models of depression; settings: cited from earlier work
[2] = test system: human peripheral blood lymphocytes (HPBL)
Experimental: (§1) The clastogenic potential of (S)-norketamine was evaluated in the in vitro mammalian chromosome aberration test using human peripheral blood lymphocytes (HPBL) in both the absence and presence of an induced metabolic activation system (the 9000 g supernatant [S9] microsomal fraction of liver homogenate from rats exposed to phenobarbital/5,6-benzoflavone).
The study was conducted in 2 phases, with a preliminary toxicity test used to determine the appropriate concentrations for the definitive chromosomal aberration assay. Water was used as a negative (vehicle) control. In both phases, the cells were treated for 3 and 21 hours in the absence of S9 mix and for 3 hours in the presence of S9 mix. The mitotic index was assessed for all cultures to determine cytotoxicity. Ten concentrations, ranging from […], were evaluated in the preliminary toxicity test.

[3] = test system: human peripheral blood lymphocytes (HPBL); remark: listed apart in the source
Experimental: as §1, with “esketamine” for “(S)-norketamine”, “Aroclor-1254).” for “phenobarbital/5,6-benzoflavone).”
The study was conducted in 2 phases, with a preliminary toxicity test used to determine the appropriate concentrations for the definitive chromosomal aberration assay. Water was used as a negative (vehicle) control. Toxicity (defined as >45% reduction in MI relative to the vehicle control) was evaluated at 9 concentrations, ranging from 0.0238 to 238 μg/ml, after exposure of HPBL to esketamine for 20 hours in the absence of S9 activation, or for 4 hours, either in the presence or absence of S9 activation, followed by a 16-hour recovery period.
The definitive chromosome aberration assay evaluated HPBL cells after exposure to esketamine for 20 hours in the absence of S9 activation, or for 4 hours, either in the presence of absence of S9 activation, followed by a 16-hour recovery. Positive controls for chromosomal aberrations in non-activated and S9-activated evaluations, respectively, consisted of mitomycin C (MMC, 0.6 and 0.3 μg/mL for the 4- and 20-hour exposures, respectively) and cyclophosphamide (CP, 2.5, 5, and 7.5 μg/mL). […] Initially, the doses selected for evaluation of chromosomal aberrations were 60, 120, and 238 μg/mL for the non-activated 4- and 20-hour treatment conditions; and 30, 60, and 200 μg/mL for the S9-activated 4-hour treatment condition.

[4] = Single dose crossover study in healthy volunteers, pharmacokinetics; settings: both, human, plasma; for AUC(0-inf): AUC0-inf; for AUC(0-inf) / AUC(0-t) / Cmax: geometric mean; for AUC(0-t): AUC0-t; for Cmax: 15 subjects; for half-life: t1/2, geometric mean; for Tmax: median
Source text: A randomized, open-label 4-way crossover study in 16 healthy male and female subjects was held wherein said subjects were placed in a randomly assigned order and administered esketamine. Each subject was assigned to 1 of 4 treatment sequences according to a randomization code such that 4 subjects were assigned to each treatment sequence. There was a wash-out period of at least 7 days between dosing periods with doses consisting of either oral or intravenous esketamine hydrochloride. The study consisted of an eligibility screening period of 28 days, 4 study periods involving administration of a single dose of esketamine hydrochloride followed by safety assessments with blood sampling for PK purposes up to 72 hours after study drug administration, discharge at 72 hours after study drug administration and a follow-up visit 7-14 days after the last PK blood sample was taken on Day 4.

[5] = test system: bipolar disorder; settings: intravenous; cited from earlier work
[6] = test system: chronic pain; settings: oral; cited from earlier work
[7] = test system: Generalized Anxiety and Social Anxiety Disorder patients; settings: treatment-refractory patients; cited from earlier work
[8] = Yanagihara et al (2003); cited from earlier work
[9] = test system: Parkinson's disease sufferers; settings: cited from earlier work
[10] = iv, 0.3 mg/kg, plasma analyte after single dose esketamine 0.3 mg/kg iv
[11] = po, 20 mg, plasma analyte after single dose esketamine 20 mg oral solution
[12] = po, 20 mg, plasma analyte after single dose esketamine 20 mg oral tablet
[13] = po, 100 mg, plasma analyte after single dose esketamine 100 mg oral tablet
[14] = S9-activated system, positive control

Structure (SMILES): CN[C@@]1(c2ccccc2Cl)CCCCC1=O [(R)-ketamine, (2R)-2-(2-Chlorophenyl)-2-(methylamino) cyclohexanone]
- antidepressant effects compared with esketamine [1]: greater potency and longer-lasting antidepressant effects than esketamine

Structure (SMILES): CO[C@@]12[C@H](COC(N)=O)C3=C(C(=O)C(C)=C(N)C3=O)N1C[C@@H]1N[C@@H]12 [MMC, mitomycin C]
- proportion of aberrant cells [2]: statistically significant increases
- cells with structural chromosomal aberrations [3]: 13.3%
- mean MI value ([3]; non-activated systems, positive control): 9%

Structure (SMILES): N[C@]1(c2ccccc2Cl)CCC[C@H](O)C1=O [(2S,6S)-OH-Norketamine, (2S,6S)-2-Amino-2-(2-chlorophenyl)-6-hydroxycyclohexanone]
- AUC(0-inf) [4, 10]: 390 ng·h/mL
- AUC(0-t) [4, 10]: 376 ng·h/mL
- Cmax [4, 10]: 24.8 ng/mL
- half-life [4, 10]: 10.7 h
- Tmax [4, 10]: 3 h
- AUC(0-inf) [4, 11]: 378 ng·h/mL
- AUC(0-inf) [4, 12]: 401 ng·h/mL
- AUC(0-t) [4, 11]: 366 ng·h/mL
- AUC(0-t) [4, 12]: 390 ng·h/mL
- Cmax [4, 11]: 46.5 ng/mL
- Cmax [4, 12]: 45.8 ng/mL
- half-life [4, 11]: 7.83 h
- half-life [4, 12]: 7.77 h
- Tmax [4, 11]: 1 h
- Tmax [4, 12]: 1.5 h
- AUC(0-inf) [4, 13]: 1960 ng·h/mL
- AUC(0-t) [4, 13]: 1950 ng·h/mL
- Cmax [4, 13]: 189 ng/mL
- half-life [4, 13]: 8.92 h
- Tmax [4, 13]: 2 h

Structure (SMILES): N[C@]1(c2ccccc2Cl)CCCCC1=O [(S)-norketamine, (2S)-2-(2-Chlorophenyl)-2-(amino) cyclohexanone]
- Toxicity (mitotic index), preliminary toxicity test [2]: not observed at any dose
- clastogenicity, conclusion [2]: non-clastogenic
- proportion of metaphase figures containing chromosomal aberrations vs vehicle control [2]: no statistically significant increases
- proportion of polyploid or endoreduplicated metaphase cells vs vehicle control ([2]; any treatment condition): No statistically significant increases
- AUC(0-inf) [4, 10]: 441 ng·h/mL
- AUC(0-t) [4, 10]: 426 ng·h/mL
- Cmax [4, 10]: 42.2 ng/mL
- half-life [4, 10]: 11.3 h
- Tmax [4, 10]: 1.25 h
- AUC(0-inf) [4, 11]: 417 ng·h/mL
- AUC(0-inf) [4, 12]: 429 ng·h/mL
- AUC(0-t) [4, 11]: 405 ng·h/mL
- AUC(0-t) [4, 12]: 418 ng·h/mL
- Cmax [4, 11]: 99.8 ng/mL
- Cmax [4, 12]: 89.7 ng/mL
- half-life [4, 11]: 8.88 h
- half-life [4, 12]: 8.75 h
- Tmax [4, 11]: 0.75 h
- Tmax [4, 12]: 1 h
- AUC(0-inf) [4, 13]: 2280 ng·h/mL
- AUC(0-t) [4, 13]: 2270 ng·h/mL
- Cmax [4, 13]: 352 ng/mL
- half-life [4, 13]: 9.27 h
- Tmax [4, 13]: 1 h

Structure (SMILES): O=P1(N(CCCl)CCCl)NCCCO1 (centres unmarked) [CP, cyclophosphamide]
- proportion of aberrant cells ([2]; positive control compounds): statistically significant increases
- cells with structural aberrations [3, 14]: 10.7%
- mean MI value [3, 14]: 6.2%

Structure (SMILES): CNC1(c2ccccc2Cl)CCCCC1=O (stereo not drawn) [ketamine, dl 2-(2-chlorophenyl)-2(methylamino) cyclohexanone]
- effect in bipolar disorder [5]: robust and rapid effect
- chronic pain [6]: could reduce chronic pain
- anxiety ratings [7]: improvement in anxiety ratings within an hour of ketamine dosing which persisted for up to a week
- nasal bioavailability [8]: 45%
- levodopa induced dyskinesia [9]: could reduce levodopa induced dyskinesia
